Consider two molecules from PMC9948199 (ACS Omega, 2023).

A short description of series [1]: Blood, tumor and tissue concentration after last dose in the tumor model. The format is in vivo, Balb/c nude mice. Conditions: for concentration at 2 h / concentration at 8 h: female, Balb/c nude (Nu/Nu), mouse, ip; for concentration at 2 h / concentration at 8 h / concentration of MRTX1133 in kidney: 10 mg/kg; for concentration of MRTX1133 in heart / concentration of MRTX1133 in intestine / concentration of MRTX1133 in liver / concentration of MRTX1133 in lung / concentration of MRTX1133 in spleen / concentration of MRTX1133 in stomach / concentration of MRTX1133 in tumor / concentration of MRTX1133 in kidney: from MRTX1133 IP 10 mpk.

Series [2] is described as follows: Tolerability and body weight in mice. It counts as in vivo. Conditions: oral, 300 mpk.
Series [3] relates to AsPC-1 (pancreatic cancer cell line bearing the KRAS^G12D mutation) xenograft. Put plainly: AsPC-1 xenograft tumor mouse model efficacy. It counts as in vivo, Balb/c nude mice. Conditions: 16 days.
Series [4] in a line: Caco-2 permeability assay. It counts as in vitro ADME. The settings on record: human, Table 1.
Series [5] is described as follows: Stability in mouse liver microsomes. Conditions: pH 7.4. The format is in vitro ADME.
Another series in a line: Pharmacokinetics in mice. The format is in vivo. The settings on record: intravenous, 3 mpk.
[6] abbreviates: following IP administration of MRTX1133 (10 mpk), time not given.

For the molecule `C#Cc1c(F)ccc2cc(O)cc(-c3ncc4c(N5C[C@H]6CC[C@@H](C5)N6C(=O)OC(C)OC(=O)CCC)nc(OC[C@@]56CCCN5C[C@H](F)C6)nc4c3F)c12` (stereo partly drawn) [Compound 9, 1-(Butyryloxy)ethyl (1R,5S)-3-(7-(8-ethynyl-7-fluoro-3-hydroxynaphthalen-1-yl)-8-fluoro-2-(((2R,7aS)-2-fluorotetrahydro-1H-pyrrolizin-7a(5H)-yl)methoxy)pyrido[4,3-d]pyrimidin-4-yl)-3,8-diazabicyclo[3.2.1]octane-8-carboxylate], the “blood concentration of the named Cpd” value in series [1] (8 h post last oral dose of prodrug 9 (high dose, 126 mpk bid) in the tumor model) is listed as “BLQ”. Moreover, the tolerability in mice result in series [2] (conventional vehicle) is recorded as “intolerable”; in series [2] (lipid-based formulation), “well-tolerated”. The figures for the “tumor growth inhibition (TGI)” value in series [3] (high dose 126 mpk (equimolar to 100 mpk MRTX1133) p.o. bid) and in series [3] (low dose 37.8 mpk (equimolar to 30 mpk MRTX1133) p.o. bid) were 54% and 20%, respectively.
In the case of `C#Cc1c(F)ccc2cc(O)cc(-c3ncc4c(N5CC6CCC(C5)N6)nc(OC[C@@]56CCCN5C[C@H](F)C6)nc4c3F)c12` [MRTX1133], in series [4] (Caco-2, Caco-2 permeability Papp A – B), the apical-to-basolateral permeability (Papp A→B) is under 0.48 ×10⁻⁶ cm/s. Moreover, the Papp B→A in series [4] (Caco-2, Caco-2 permeability Papp B – A) came out at 8.05 ×10⁻⁶ cm/s. Further, the efflux ratio in series [4] (Caco-2, Caco-2 permeability efflux ratio) is over 16.8. In series [5], this molecule yielded a CLint scaled at 1 μM of 143 mL/min/kg and a half-life at 1 μM of 38.5 min. Also, in series [1] (brain), the concentration at 2 h was found to be 131 ng/g and the concentration at 8 h was 139 ng/g. In addition, in series [1] (whole blood), the concentration at 2 h was 654 ng/mL and the concentration at 8 h was found to be 330 ng/mL. In series [1] (setting [6]), the “concentration of MRTX1133 in the liver, spleen, and lung” value is ~60 000 ng/g; the “concentration of MRTX1133 in the stomach, intestine, and heart” value was ~20 000 ng/g. In addition, in series [1] (2 h post last dose), the “concentration of MRTX1133 in heart” value is given as 18 330 ng/g, the “concentration of MRTX1133 in intestine” value is recorded as 24 388 ng/g, the “concentration of MRTX1133 in liver” value is on record as 63 525 ng/g and the “concentration of MRTX1133 in lung” value was 53 040 ng/g. For the same molecule, in series [1] (2 h post last dose), the concentration of MRTX1133 in spleen stood at 58400 ng/g, the “concentration of MRTX1133 in stomach” value is 26 325 ng/g, the “concentration of MRTX1133 in tumor” value is listed as 11 870 ng/g and the “concentration of MRTX1133 in kidney” value is recorded as 285 150 ng/g. Besides, in series [1] (8 h post last dose), the “concentration of MRTX1133 in heart” value was 15 795 ng/g, the “concentration of MRTX1133 in intestine” value was 18 213 ng/g, the “concentration of MRTX1133 in liver” value is listed as 62 950 ng/g and the “concentration of MRTX1133 in lung” value is 57 300 ng/g. Moreover, in series [1] (8 h post last dose), the concentration of MRTX1133 in spleen was determined as 54000 ng/g, the “concentration of MRTX1133 in stomach” value is on record as 27 775 ng/g, the “concentration of MRTX1133 in tumor” value is 14 300 ng/g and the “concentration of MRTX1133 in kidney” value is reported as 333 900 ng/g. In addition, the “AUC0–24 h of MRTX1133” value in the series “Pharmacokinetics in mice” turned out to be 2253 ng·h/mL. In addition, the antitumor effect result in series [3] (100 mpk p.o. bid) was “no apparent antitumor effect”.
